Measured values taken from patent US7544689B2, “Purine derivatives” (Cyclacel Limited, priority 2002, dated 2009).

Assays:
[1] = biological target: T1, ERK2 (Homo sapiens, UniProt P28482); assay: Kinase assay, ERK-2 inhibition; type: biochemical
T1 construct: purchased Upstate Biotechnology
Procedure: Reactions were stopped on ice, followed by filtration through p81 filterplates or GF/C filterplates (for CDK4) (Whatman Polyfiltronics, Kent, UK), except for CDK7 where, after stopping reaction on ice, 10 μL of 10 mg/mL avidin was added to each well and further incubated for 10 min followed by filtration as per CDK2 assay. After washing 3 times with 75 mM aq orthophosphoric acid, plates were dried, scintillant added and incorporated radioactivity measured in a scintillation counter (TopCount, Packard Instruments, Pangbourne, Berks, UK). Compounds for kinase assay were made up as 10 mM stocks in DMSO and diluted into 10% DMSO in assay buffer.

[2] = biological target: T2, cyclic AMP-dependent kinase (PKA) catalytic subunit (Homo sapiens, UniProt P17612); assay: Kinase assay, PKA inhibition; type: biochemical
T2 construct: purchased Calbiochem 539487
Procedure: (§1) Recombinant cyclin DI was expressed in E. coli. Proteins were purified by metal chelate affnity chromatography to greater than 90% homogeneity. […] Reactions were stopped on ice, followed by filtration through p81 filterplates or GF/C filterplates (for CDK4) (Whatman Polyfiltronics, Kent, UK), except for CDK7 where, after stopping reaction on ice, 10 μL of 10 mg/mL avidin was added to each well and further incubated for 10 min followed by filtration as per CDK2 assay. After washing 3 times with 75 mM aq orthophosphoric acid, plates were dried, scintillant added and incorporated radioactivity measured in a scintillation counter (TopCount, Packard Instruments, Pangbourne, Berks, UK). Compounds for kinase assay were made up as 10 mM stocks in DMSO and diluted into 10% DMSO in assay buffer.

[3] = biological target: T3, CDK4/cyclin D1 (Homo sapiens, UniProt P11802); assay: Kinase assay, CDK4/cyclin D1 inhibition; type: biochemical
T3 construct: His6; made in house; host or cells: CDK4: Sf9 insect cells (baculovirus); cyclin D1: E. coli
Procedure: as §1

[4] = test system: Human tumour cell lines: A549, HT29, Saos-2; assay: 72-h MTT cytotoxicity assay; type: cell-based; conditions: for IC50: read-out: In vitro anti-proliferative activity (72 h MTT IC50), 72 h MTT, human tumour cell lines A549, HT29, Saos-2
Procedure: In short: cells were seeded into 96-well plates according to doubling time and incubated overnight at 37° C. Test compounds were made up in DMSO and a 1/3 dilution series prepared in 100 μL cell media, added to cells (in triplicates) and incubated for 72 ho at 37° C. MTT was made up as a stock of 5 mg/mL in cell media and filter-sterilised. Media was removed from cells followed by a wash with 200 μL PBS. MTT solution was then added at 20 μL per well and incubated in the dark at 37° C. for 4 h. MTT solution was removed and cells again washed with 200 μL PBS. MTT dye was solubilised with 200 μL per well of DMSO with agitation.

[5] = biological target: T4, CDK7/cyclin H (Homo sapiens, UniProt P50613); assay: Kinase assay, CDK7/cyclin H inhibition; type: biochemical
T4 construct: His6; made in house; host or cells: Sf9 insect cells (baculovirus)
Procedure: as §1

[6] = biological target: T5, CDK2/cyclin E (Homo sapiens, UniProt P24941); assay: Kinase assay, CDK2/cyclin E inhibition; type: biochemical
T5 construct: His6; made in house; host or cells: Sf9 insect cells (baculovirus)
Procedure: as §1

[7] = biological target: T6, CDK1/cyclin B (Homo sapiens, UniProt P06493); assay: Kinase assay, CDK1/cyclin B inhibition; type: biochemical
T6 construct: His6; made in house; host or cells: Sf9 insect cells (baculovirus)
Procedure: as §1

[8] = Comparative in vitro metabolism assay (microsomal incubation); conditions: for % Drug after 30 min. microsomal incubation: 10 μM compound, 0.2 mg microsomal protein, NADPH; for A: % Compound remaining/% roscovitine remaining: ratio to roscovitine, 30 min microsomal incubation
Procedure: Calibration curves were prepared at 0, 1, and 10 μM in microsomes pre-incubated for 30 min and these were also treated with methanol containing olomoucine. All samples were then centrifuged and the supernatants analysed by liquid chromatography-mass spectrometry.
The chromatography column was a Supelco LC-ABZ, 50×4.6 mm, 5 μm zwitterionic column (Supelco Inc., Supelco Park, Bellefonte, Pa., USA). Gradient eluants consisted of methanol (A) and 0.1% formic acid in water (B). […] The flow rate was 1 mL/min throughout. […] Eluant from the detector passed, without splitting, into a Thermoquest LCQ ion trap mass spectrometer fitted with an electrospray source operated in positive mode. Mass spectrometer conditions were sheath gas 80, auxiliary gas 20 (both arbitrary units), capillary voltage 4 to 4.5 kV and heated capillary temperature 250 to 280° C. The mass range was 50-750. Scan time was controlled by the ion trap which was set to a maximum ion injection-time of 200 ms or the time required to inject 2×10^8 ions; for each scan the system automatically used whichever time was reached first.

[9] = test system: representative panel of human transformed tumour cell lines; assay: Average anti-proliferative activity in tumour cell line panel; type: cell-based; conditions: average over representative panel of human transformed tumour cell lines

T1 sequence (P28482 whole entry, species assumed): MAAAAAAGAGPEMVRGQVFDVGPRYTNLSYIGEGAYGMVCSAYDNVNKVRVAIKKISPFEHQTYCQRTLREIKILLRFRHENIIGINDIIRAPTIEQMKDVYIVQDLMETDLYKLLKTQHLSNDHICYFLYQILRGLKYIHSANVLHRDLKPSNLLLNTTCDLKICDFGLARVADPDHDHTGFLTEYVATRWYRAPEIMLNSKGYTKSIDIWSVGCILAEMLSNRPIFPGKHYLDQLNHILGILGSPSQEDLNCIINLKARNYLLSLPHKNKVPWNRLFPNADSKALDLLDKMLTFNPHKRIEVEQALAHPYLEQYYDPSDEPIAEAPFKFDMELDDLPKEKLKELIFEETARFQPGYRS
T3 sequence (P11802 whole entry): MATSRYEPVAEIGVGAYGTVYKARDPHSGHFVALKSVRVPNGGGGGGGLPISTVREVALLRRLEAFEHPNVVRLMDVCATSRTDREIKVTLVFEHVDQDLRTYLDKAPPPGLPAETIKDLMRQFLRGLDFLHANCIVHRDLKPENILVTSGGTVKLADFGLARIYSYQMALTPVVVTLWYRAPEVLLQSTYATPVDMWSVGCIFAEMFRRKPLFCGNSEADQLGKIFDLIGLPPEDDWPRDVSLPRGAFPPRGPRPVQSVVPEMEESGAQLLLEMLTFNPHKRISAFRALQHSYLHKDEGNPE
T3 sequence (P24385 whole entry partner): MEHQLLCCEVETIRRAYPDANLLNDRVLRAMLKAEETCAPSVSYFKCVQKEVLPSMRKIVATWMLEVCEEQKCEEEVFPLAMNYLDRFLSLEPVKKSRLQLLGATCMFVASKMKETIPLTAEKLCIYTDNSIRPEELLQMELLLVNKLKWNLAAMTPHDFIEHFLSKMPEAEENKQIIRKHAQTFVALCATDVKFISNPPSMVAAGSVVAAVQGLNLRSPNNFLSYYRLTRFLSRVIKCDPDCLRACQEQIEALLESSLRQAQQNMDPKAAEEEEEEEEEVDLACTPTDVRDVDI
T6 sequence (P06493 whole entry): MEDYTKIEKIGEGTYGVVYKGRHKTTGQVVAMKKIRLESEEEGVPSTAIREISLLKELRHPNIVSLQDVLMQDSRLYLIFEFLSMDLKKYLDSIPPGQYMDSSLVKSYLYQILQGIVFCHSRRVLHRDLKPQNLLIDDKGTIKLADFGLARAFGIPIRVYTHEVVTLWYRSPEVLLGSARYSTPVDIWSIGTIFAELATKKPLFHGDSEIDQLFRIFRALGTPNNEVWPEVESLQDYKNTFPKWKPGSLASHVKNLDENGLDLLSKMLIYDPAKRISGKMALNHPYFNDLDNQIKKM
T6 sequence (P14635 whole entry partner): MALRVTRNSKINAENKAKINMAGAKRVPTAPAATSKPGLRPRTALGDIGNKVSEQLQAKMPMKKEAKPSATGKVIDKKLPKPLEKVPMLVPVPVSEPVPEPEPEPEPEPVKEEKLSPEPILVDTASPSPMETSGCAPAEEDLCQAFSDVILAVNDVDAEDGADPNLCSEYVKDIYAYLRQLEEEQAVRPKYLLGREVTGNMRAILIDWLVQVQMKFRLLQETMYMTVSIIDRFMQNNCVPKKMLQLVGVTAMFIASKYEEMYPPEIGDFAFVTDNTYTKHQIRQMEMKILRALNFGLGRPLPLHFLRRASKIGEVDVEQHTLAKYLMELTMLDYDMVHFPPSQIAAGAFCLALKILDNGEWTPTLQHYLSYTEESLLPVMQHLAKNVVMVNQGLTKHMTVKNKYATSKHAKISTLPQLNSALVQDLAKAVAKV
T4 sequence (P50613 whole entry): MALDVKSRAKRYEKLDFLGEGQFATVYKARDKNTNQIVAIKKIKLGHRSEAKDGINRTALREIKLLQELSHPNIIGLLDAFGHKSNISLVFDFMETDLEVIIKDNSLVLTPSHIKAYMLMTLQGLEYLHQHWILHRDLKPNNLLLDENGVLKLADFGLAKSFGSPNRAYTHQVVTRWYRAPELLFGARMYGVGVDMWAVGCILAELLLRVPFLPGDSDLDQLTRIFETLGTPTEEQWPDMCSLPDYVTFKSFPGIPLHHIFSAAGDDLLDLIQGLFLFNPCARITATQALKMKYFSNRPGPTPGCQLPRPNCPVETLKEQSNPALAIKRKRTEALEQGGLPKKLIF
T4 sequence (P51946 whole entry partner): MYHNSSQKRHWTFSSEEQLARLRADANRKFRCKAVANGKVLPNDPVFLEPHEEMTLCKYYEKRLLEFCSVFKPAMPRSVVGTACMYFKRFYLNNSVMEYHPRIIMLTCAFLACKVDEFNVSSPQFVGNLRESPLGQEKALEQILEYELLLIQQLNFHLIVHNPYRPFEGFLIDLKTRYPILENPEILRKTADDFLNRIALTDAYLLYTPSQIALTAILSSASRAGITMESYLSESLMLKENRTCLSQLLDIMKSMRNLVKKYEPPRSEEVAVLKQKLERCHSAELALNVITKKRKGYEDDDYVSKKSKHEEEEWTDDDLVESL

Compound | IC50 [1] [µM] | IC50 [2] [µM] | IC50 [3] [µM] | IC50 [4] [µM] | IC50 [5] [µM] | IC50 [6] [µM] | IC50 [7] [µM] | C: IC50 cytotox. roscovitine/IC50 cytotox. compound ([4]; ratio to roscovitine) | % Drug after 30 min. microsomal incubation [8] [%] | A: % Compound remaining/% roscovitine remaining [8] | A × B ([6]; comparative in vitro efficacy: metabolism ratio × CDK2 ratio) | B: IC50 CDK2 roscovitine/IC50 CDK2 compound ([6]; ratio to roscovitine) | IC50 [9] [µM]
CC[C@@H](Nc1nc(NCc2ccccn2)c2ncn(C(C)C)c2n1)C(O)C(C)(C)C (mixture of isomers) [(3RS,4R)-4-{9-Isopropyl-6-[(pyridin-2-ylmethyl)-amino]-9H-purin-2-ylamino}-2,2-dimethyl-hexan-3-ol] | > 200 | > 200 | 38 | 38 | 2.4 | 2.8 | > 200 | – | – | – | – | – | –
CC[C@@H](Nc1nc(NCc2ccccn2)c2ncn(C(C)C)c2n1)C(O)C(C)C (mixture of isomers) [(3RS,4R)-4-{9-Isopropyl-6-[(pyridin-2-ylmethyl)-amino]-9H-purin-2-ylamino}-2-methyl-hexan-3-ol] | > 200 | > 200 | 32 | 23 | 3.9 | 3.4 | 84 | – | – | – | – | – | –
CCC(O)[C@@H](CC)Nc1nc(NCc2ccccn2)c2ncn(C(C)C)c2n1 (mixture of isomers) [(3RS,4R)-4-{9-Isopropyl-6-[(pyridin-2-ylmethyl)-amino]-9H-purin-2-ylamino}-hexan-3-ol] | 230 | > 200 | 20 | 19 | 1.2 | 0.77 | 35 | – | – | – | – | – | –
CC[C@H](Nc1nc(NCc2ccccn2)c2ncn(C(C)C)c2n1)C(O)C(C)(C)C (mixture of isomers) [(3RS,4S)-4-{9-Isopropyl-6-[(pyridin-2-ylmethyl)-amino]-9H-purin-2-ylamino}-2,2-dimethyl-hexan-3-ol] | 137 | > 200 | 22 | 33 | 5.8 | 1 | > 200 | – | – | – | – | – | –
CC[C@H](Nc1nc(NCc2ccccn2)c2ncn(C(C)C)c2n1)C(O)C(C)C (mixture of isomers) [(3RS,4S)-4-{9-Isopropyl-6-[(pyridin-2-ylmethyl)-amino]-9H-purin-2-ylamino}-2-methyl-hexan-3-ol] | > 200 | > 200 | 49 | 26 | 3.3 | 3.1 | > 200 | – | – | – | – | – | –
CCC(O)[C@H](CC)Nc1nc(NCc2ccccn2)c2ncn(C(C)C)c2n1 (mixture of isomers) [(3RS,4S)-4-{9-Isopropyl-6-[(pyridin-2-ylmethyl)-amino]-9H-purin-2-ylamino}-hexan-3-ol] | 80 | > 200 | 24 | 27 | 2.6 | 0.42 | 40 | – | – | – | – | – | –
CC[C@H](Nc1nc(NCc2ccccn2)c2ncn(C(C)C)c2n1)[C@@H](C)O [(2R3S)-3-{9-Isopropyl-6-[(pyridin-2-ylmethyl)-amino]-9H-purin-2-ylamino}-pentan-2-ol] | 77 | > 200 | 18 | 9.8 | 2.6 | 0.05 | 8.9 | 1.2 | 33 | 1.0 | 1.9 | 1.9 | –
CC[C@@H](Nc1nc(NCc2ccccn2)c2ncn(C(C)C)c2n1)[C@H](C)O [(2S3R)-3-{9-Isopropyl-6-[(pyridin-2-ylmethyl)-amino]-9H-purin-2-ylamino}-pentan-2-ol] | 73 | > 200 | 48 | 12 | 0.55 | 0.52 | 39 | – | – | – | – | – | –
CC[C@@H](Nc1nc(NCc2ccccn2)c2ncn(C(C)C)c2n1)C(C)(C)O [(3R)-3-{9-Isopropyl-6-[(pyridin-2-ylmethyl)-amino]-9H-purin-2-ylamino}-2-methyl-pentan-2-ol] | > 200 | > 200 | 18 | 35 | 4.2 | 0.48 | 44 | – | – | – | – | – | –
CC[C@H](CO)Nc1nc(NCc2ccccc2)c2ncn(C(C)C)c2n1 [Roscovitine, reference compound] | – | – | – | – | – | – | – | – | 33 | 1.0 | – | – | –
CC[C@@H](Nc1nc(NCc2ccccc2)c2ncn(C(C)C)c2n1)C(=O)O [carboxyl derivative, (2R)-2-(6-Benzylamino-9-isopropyl-9H-purin-2-ylamino)-butyric acid] | – | – | – | – | – | – | – | – | – | – | – | – | > 50
